Species: Rattus norvegicus
Experiment: DrugMatrix - Regimen: Daily Repeat
Assay type: toxicity, organism-based, Sprague-Dawley
Set-up: regimen Daily Repeat, gender Male, age 6-8 weeks
Settings: in vivo, iv, vehicle 100 % SALINE; for ABSOLUTE BASOPHIL / ABSOLUTE EOSINOPHIL / ABSOLUTE LYMPHOCYTE / ABSOLUTE MONOCYTE / ABSOLUTE SEGMENTED NEUTROPHIL / BASOPHIL / EOSINOPHIL / ERYTHROCYTE COUNT / HEMATOCRIT / HEMOGLOBIN / LEUKOCYTE COUNT / LYMPHOCYTE / MEAN CORPUSCULAR HEMOGLOBIN / MEAN CORPUSCULAR HEMOGLOBIN CONCENTRATION / MEAN CORPUSCULAR VOLUME / MONOCYTE / NEUTROPHIL / NUCLEATED RED BLOOD CELLS: tissue Blood; for ALANINE AMINOTRANSFERASE / ALKALINE PHOSPHATASE / ASPARTATE AMINOTRANSFERASE / BLOOD UREA NITROGEN / CARBON DIOXIDE / CHOLESTEROL / CREATINE PHOSPHOKINASE / CREATININE / GLUCOSE / LACTATE DEHYDROGENASE / LIPASE / SODIUM / TOTAL BILIRUBIN / TOTAL PROTEIN / URIC ACID: tissue Plasma
[1] = 0 mg/kg, 72 h, dose level Control, time 3 day
[2] = 0 mg/kg, 120 h, dose level Control, time 5 day
[3] = […], 72 h, dose 0.27 mg/Kg, dose level Low, time 3 day
[4] = […], 72 h, dose 2.7 mg/Kg, dose level High, time 3 day

COc1cccc2c1C(=O)c1c(O)c3c(c(O)c1C2=O)C[C@@](O)(C(=O)CO)C[C@@H]3O[C@H]1C[C@H](N)[C@@H](O)[C@H](C)O1 [EPIRUBICIN]
ABSOLUTE BASOPHIL [1]: 0 CELLS/uL | ABSOLUTE EOSINOPHIL [1]: 23.17 CELLS/uL | ABSOLUTE LYMPHOCYTE [1]: 12448.83 CELLS/uL | ABSOLUTE MONOCYTE [1]: 259.5 CELLS/uL | ABSOLUTE SEGMENTED NEUTROPHIL [1]: 1635.17 CELLS/uL | BASOPHIL [1]: 0% | EOSINOPHIL [1]: 0.17% | ERYTHROCYTE COUNT [1]: 5.35 x10E6/uL | HEMATOCRIT [1]: 34.85% | HEMOGLOBIN [1]: 13.72 G/DL | LEUKOCYTE COUNT [1]: 14.37 x10E3/uL | LYMPHOCYTE [1]: 86.5% | MEAN CORPUSCULAR HEMOGLOBIN [1]: 25.67 pg | MEAN CORPUSCULAR HEMOGLOBIN CONCENTRATION [1]: 39.38 G/DL | MEAN CORPUSCULAR VOLUME [1]: 65.2 fL | MONOCYTE [1]: 1.83% | NEUTROPHIL [1]: 11.5% | NUCLEATED RED BLOOD CELLS [1]: 0 /100WBC | ALANINE AMINOTRANSFERASE [1]: 56.5 u/L | ALKALINE PHOSPHATASE [1]: 334 u/L | ASPARTATE AMINOTRANSFERASE [1]: 85.5 u/L | BLOOD UREA NITROGEN [1]: 16.33 mg/dL | CARBON DIOXIDE [1]: 26.5 mmol/L | CHOLESTEROL [1]: 70.33 mg/dL | CREATINE PHOSPHOKINASE [1]: 339.5 u/L | CREATININE [1]: 0.18 mg/dL | GLUCOSE [1]: 155.17 mg/dL | LACTATE DEHYDROGENASE [1]: 382 u/L | LIPASE [1]: 9.5 u/L | SODIUM [1]: 143.87 MEQ/L | TOTAL BILIRUBIN [1]: 0.2 mg/dL | TOTAL PROTEIN [1]: 5.98 G/DL | URIC ACID [1]: 1.53 mg/dL | ABSOLUTE BASOPHIL [2]: 0 CELLS/uL | ABSOLUTE EOSINOPHIL [2]: 16.17 CELLS/uL | ABSOLUTE LYMPHOCYTE [2]: 10653.67 CELLS/uL | ABSOLUTE MONOCYTE [2]: 17.17 CELLS/uL | ABSOLUTE SEGMENTED NEUTROPHIL [2]: 746.33 CELLS/uL | BASOPHIL [2]: 0% | EOSINOPHIL [2]: 0.17% | ERYTHROCYTE COUNT [2]: 5.88 x10E6/uL | HEMATOCRIT [2]: 36.68% | HEMOGLOBIN [2]: 14.6 G/DL | LEUKOCYTE COUNT [2]: 11.43 x10E3/uL | LYMPHOCYTE [2]: 91.83% | MEAN CORPUSCULAR HEMOGLOBIN [2]: 24.85 pg | MEAN CORPUSCULAR HEMOGLOBIN CONCENTRATION [2]: 39.8 G/DL | MEAN CORPUSCULAR VOLUME [2]: 62.47 fL | MONOCYTE [2]: 0.17% | NEUTROPHIL [2]: 7.83% | NUCLEATED RED BLOOD CELLS [2]: 0 /100WBC | ALANINE AMINOTRANSFERASE [2]: 45.5 u/L | ALKALINE PHOSPHATASE [2]: 330.17 u/L | ASPARTATE AMINOTRANSFERASE [2]: 93.33 u/L | BLOOD UREA NITROGEN [2]: 18 mg/dL | CARBON DIOXIDE [2]: 25.5 mmol/L | CHOLESTEROL [2]: 73.5 mg/dL | CREATINE PHOSPHOKINASE [2]: 434 u/L | CREATININE [2]: 0.2 mg/dL | GLUCOSE [2]: 148.83 mg/dL | LACTATE DEHYDROGENASE [2]: 603.83 u/L | LIPASE [2]: 10 u/L | SODIUM [2]: 139.78 MEQ/L | TOTAL BILIRUBIN [2]: 0.15 mg/dL | TOTAL PROTEIN [2]: 6.1 G/DL | URIC ACID [2]: 2.02 mg/dL | ABSOLUTE BASOPHIL [3]: 0 CELLS/uL | ABSOLUTE EOSINOPHIL [3]: 28 CELLS/uL | ABSOLUTE LYMPHOCYTE [3]: 4991.67 CELLS/uL | ABSOLUTE MONOCYTE [3]: 38 CELLS/uL | ABSOLUTE SEGMENTED NEUTROPHIL [3]: 375.67 CELLS/uL | BASOPHIL [3]: 0% | EOSINOPHIL [3]: 0.67% | ERYTHROCYTE COUNT [3]: 4.95 x10E6/uL | HEMATOCRIT [3]: 31.43% | HEMOGLOBIN [3]: 12.5 G/DL | LEUKOCYTE COUNT [3]: 5.43 x10E3/uL | LYMPHOCYTE [3]: 91.67% | MEAN CORPUSCULAR HEMOGLOBIN [3]: 25.3 pg | MEAN CORPUSCULAR HEMOGLOBIN CONCENTRATION [3]: 39.8 G/DL | MEAN CORPUSCULAR VOLUME [3]: 63.57 fL | MONOCYTE [3]: 0.67% | NEUTROPHIL [3]: 7% | NUCLEATED RED BLOOD CELLS [3]: 0 /100WBC | ABSOLUTE BASOPHIL [4]: 0 CELLS/uL | ABSOLUTE EOSINOPHIL [4]: 0 CELLS/uL | ABSOLUTE LYMPHOCYTE [4]: 4049.67 CELLS/uL | ABSOLUTE MONOCYTE [4]: 29.33 CELLS/uL | ABSOLUTE SEGMENTED NEUTROPHIL [4]: 387.67 CELLS/uL | BASOPHIL [4]: 0% | EOSINOPHIL [4]: 0% | ERYTHROCYTE COUNT [4]: 5.35 x10E6/uL | HEMATOCRIT [4]: 33.77% | HEMOGLOBIN [4]: 13.47 G/DL | LEUKOCYTE COUNT [4]: 4.47 x10E3/uL | LYMPHOCYTE [4]: 90.67% | MEAN CORPUSCULAR HEMOGLOBIN [4]: 25.2 pg | MEAN CORPUSCULAR HEMOGLOBIN CONCENTRATION [4]: 39.87 G/DL | MEAN CORPUSCULAR VOLUME [4]: 63.03 fL

— ChEMBL document CHEMBL3885881, “DrugMatrix”
